Measurements from patent US9169241B2, “Quinolinyloxyphenylsulfonamides” (Max-Planck-Gesellschaft Zur Forderung der Wissenschaften …, priority 2009, dated 2015).
Counter-ions that a name gives are not always drawn. Like-named read-outs stand apart in the source and are kept apart here.

Key:
[1] = tested on: viable cells in culture; experiment: Cell viability assay at 10 μM (CellTiter-Glo, Table VII); assay type: cell-based; settings: compound 10 μM, 72 h;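 further: graded A 0-20%; B 21-40%; C 41-60%; D over 60% viable cells relative to DMSO control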
Method: The CellTiter-Glo® Luminescent Cell Viability Assay (Promega Corporation. Madison, Wis., USA) is method a determining the number of viable cells in culture based on quantification of the ATP being present which is an indicator of metabolically active cells was used according to manufacturers protocol. In detail the assay was performed in a 96 well format were 1000 cells/well were incubated with compound at concentration 10 μM as well as DMSO control for 72 h in 100 μl cell culture medium. Percentage of inhibition was calculated compared to ATP amount of DMSO control.

SMILES | melting point [°C] | further results
COc1cc2c(Oc3ccc(NS(=O)(=O)c4ccn(C)n4)cc3F)ccnc2cc1OCCCN1CCCC(C)C1 (centres unmarked) [Example 61, 1-Methyl-1H-pyrazole-3-sulfonic acid (3-fluoro-4-{6-methoxy-7-[3-(3-methyl-piperidin-1-yl)-propoxy]-quinolin-4-yloxy}-phenyl)-amide] | 164 to 166 | –
CCn1cc(S(=O)(=O)Nc2ccc(Oc3ccnc4cc(OCCCN5CCCC(C)C5)c(OC)cc34)c(F)c2)cn1 (centres unmarked) [Example 68, 1-Ethyl-1H-pyrazole-4-sulfonic acid (3-fluoro-4-{6-methoxy-7-[3-(3-methyl-piperidin-1-yl)-propoxy]-quinolin-4-yloxy}-phenyl)-amide] | 152 to 154 | –
CCCCS(=O)(=O)Nc1ccc(Oc2ccnc3cc(OCCCN4CCOCC4)c(OC)cc23)c(F)c1 [Example 79, Butane-1-sulfonic acid {3-fluoro-4-[6-methoxy-7-(3-morpholin-4-yl-propoxy)-quinolin-4-yloxy]-phenyl}-amide] | 98 to 100 | –
COc1cc2c(Oc3ccc(NS(=O)(=O)c4cc(Cl)ccc4Cl)cc3F)ccnc2cc1OCCCN1CCN(C)CC1 [Example 20, 2,5-Dichloro-N-(3-fluoro-4-{6-methoxy-7-[3-(4-methyl-piperazin-1-yl)-propoxy]-quinolin-4-yloxy}-phenyl)-benzenesulfonamide] | 134 to 136 | viability at 10 µM ([1]; Homo sapiens, HCT-116, HCT116 def, read-out: percentage (%) of viable cells HCT 116def): 21 to 40%; viability at 10 µM ([1]; Homo sapiens, HCT-116, HCT116 wt, read-out: percentage (%) of viable cells HCT 116wt): 0 to 20%; viability at 10 µM ([1]; Homo sapiens, HT-29, HT29, read-out: percentage (%) of viable cells HT29): 0 to 20%; viability at 10 µM ([1]; Homo sapiens, NCI-H358, H358, read-out: percentage (%) of viable cells H358): 0 to 20%; viability at 10 µM ([1]; Homo sapiens, NCI-H1650, H1650, read-out: percentage (%) of viable cells H1650): 21 to 40%; viability at 10 µM ([1]; Homo sapiens, NCI-H1666, H1666, read-out: percentage (%) of viable cells H1666): 21 to 40%; viability at 10 µM ([1]; Homo sapiens, NCI-H1975, H1975, read-out: percentage (%) of viable cells H1975): 21 to 40%; viability at 10 µM ([1]; Homo sapiens, NCI-H1993, H1993, read-out: percentage (%) of viable cells H1993): 21 to 40%; viability at 10 µM ([1]; Homo sapiens, A549, read-out: percentage (%) of viable cells A549): > 60%; viability at 10 µM ([1]; Homo sapiens, HCC827, read-out: percentage (%) of viable cells HCC827): 41 to 60%; viability at 10 µM ([1]; Homo sapiens, SW480, read-out: percentage (%) of viable cells SW480): 0 to 20%; viability at 10 µM ([1]; RKO, read-out: percentage (%) of viable cells RKO): 0 to 20%
COc1cc2c(Oc3ccc(NS(=O)(=O)c4ccn(C)n4)cc3F)ccnc2cc1OCCN1CCOCC1 [Example 107, 1-Methyl-1H-pyrazole-3-sulfonic acid {3-fluoro-4-[6-methoxy-7-(2-morpholin-4-yl-ethoxy)-quinolin-4-yloxy]-phenyl}-amide] | 213 to 214 | –
COc1cccc(S(=O)(=O)Nc2ccc(Oc3ccnc4cc(OCCCN5CCCC(C)C5)c(OC)cc34)c(F)c2)c1 (centres unmarked) [Example 42, N-(3-Fluoro-4-{6-methoxy-7-[3-(3-methyl-piperidin-1-yl)-propoxy]-quinolin-4-yloxy}-phenyl)-3-methoxy-benzenesulfonamide] | 172 to 174 | –
COc1cc2c(Oc3ccc(NS(=O)(=O)c4ccccc4C(F)(F)F)c(F)c3)ccnc2cc1OCCCN1CCCC(C)C1 (centres unmarked) [Example 215, N-(2-Fluoro-4-{6-methoxy-7-[3-(3-methyl-piperidin-1-yl)-propoxy]-quinolin-4-yloxy}-phenyl)-2-trifluoromethyl-benzenesulfonamide] | 125 to 126 | –
COc1cc2c(Oc3ccc(NS(=O)(=O)c4cccs4)cc3F)ccnc2cc1OCCCN1CCN(C)CC1 [Example 31, Thiophene-2-sulfonic acid (3-fluoro-4-{6-methoxy-7-[3-(4-methyl-piperazin-1-yl)-propoxy]-quinolin-4-yloxy}-phenyl)-amide] | 201 to 202 | –
COc1cc2c(Oc3ccc(NS(=O)(=O)C4CC4)cc3F)ccnc2cc1OCCCN1CCCC(C)C1 (centres unmarked) [Example 60, Cyclopropanesulfonic acid (3-fluoro-4-{6-methoxy-7-[3-(3-methyl-piperidin-1-yl)-propoxy]-quinolin-4-yloxy}-phenyl)-amide] | 158 to 160 | –
COc1cc2c(Oc3ccc(NS(=O)(=O)c4ccccc4C(F)(F)F)cc3F)ccnc2cc1OCCCNC(=O)NC(C)(C)C [Example 98, N-(4-{7-[3-(3-tert-Butyl-ureido)-propoxy]-6-methoxy-quinolin-4-yloxy}-3-fluoro-phenyl)-2-trifluoromethyl-benzenesulfonamide] | 106 to 108 | –
COc1cc2c(Oc3cccc(NS(=O)(=O)c4cc(F)ccc4F)c3)ccnc2cc1OCCCN1CCN(C)CC1 [Example 123, 2,5-Difluoro-N-(3-{6-methoxy-7-[3-(4-methyl-piperazin-1-yl)-propoxy]-quinolin-4-yloxy}-phenyl)-benzenesulfonamide] | 186 to 188 | –
COc1cc2c(Oc3ccc(NS(=O)(=O)/C=C/c4ccccc4)cc3F)ccnc2cc1OCCCN1CCCC(C)C1 (centres unmarked) [Example 73, 2-Phenyl-ethenesulfonic acid (3-fluoro-4-{6-methoxy-7-[3-(3-methyl-piperidin-1-yl)-propoxy]-quinolin-4-yloxy}-phenyl)-amide] | 104 to 106 | –
COc1cc2c(Oc3ccc(NS(=O)(=O)c4cccc(Cl)c4)cc3F)ccnc2cc1OCCCN1CCCC(C)C1 (centres unmarked) [Example 69, 3-Chloro-N-(3-fluoro-4-{6-methoxy-7-[3-(3-methyl-piperidin-1-yl)-propoxy]-quinolin-4-yloxy}-phenyl)-benzenesulfonamide] | 110 to 112 | –
COc1cc2c(Oc3ccc(NS(=O)(=O)c4ccccc4C(F)(F)F)cc3F)ccnc2cc1OCCCCN1CCOCC1 [Example 214, N-{3-Fluoro-4-[6-methoxy-7-(4-morpholin-4-yl-butoxy)-quinolin-4-yloxy]-phenyl}-2-trifluoromethyl-benzenesulfonamide] | 102 to 104 | –
COc1cc2c(Oc3ccc(NS(=O)(=O)c4cccc(C(F)(F)F)c4)cc3F)ccnc2cc1OCCCN1CCCC(C)C1 (centres unmarked) [Example 39, ′N-(3-Fluoro-4-{6-methoxy-7-[3-(3-methyl-piperidin-1-yl)-propoxy]-quinolin-4-yloxy}-phenyl)-3-trifluoromethyl-benzenesulfonamide] | 128 to 130 | –
COc1cc2c(Oc3ccc(NS(=O)(=O)c4ccccc4F)cc3F)ccnc2cc1OCCCN1CCCCC1 [Example 2, 2-Fluoro-N-{3-fluoro-4-[6-methoxy-7-(3-piperidin-1-yl-propoxy)-quinolin-4-yloxy]-phenyl}-benzenesulfonamide] | 214 to 216 | –
COc1cc2c(Oc3ccc(NS(=O)(=O)c4cccc5cccnc45)cc3F)ccnc2cc1OCCCN1CCCC(C)C1 (centres unmarked) [Example 74, Quinoline-8-sulfonic acid (3-fluoro-4-{6-methoxy-7-[3-(3-methyl-piperidin-1-yl)-propoxy]-quinolin-4-yloxy}-phenyl)-amide] | 190 to 191 | –
COc1cc2c(Oc3ccc(NS(=O)(=O)c4cc(F)ccc4F)cc3F)ccnc2cc1OCCCN (as salt: hydrochloride) [Example 122, N-{4-[7-(3-Amino-propoxy)-6-methoxy-quinolin-4-yloxy]-3-fluoro-phenyl}-2,5-difluoro-benzenesulfonamide hydrochloride] | 188 to 190 | –
COc1cc2c(Oc3ccc(NS(=O)(=O)c4cccc(OC(F)F)c4)cc3F)ccnc2cc1OCCCN1CCN(C)CC1 [Example 30, 3-Difluoromethoxy-N-(3-fluoro-4-{6-methoxy-7-[3-(4-methyl-piperazin-1-yl)-propoxy]-quinolin-4-yloxy}-phenyl)-benzenesulfonamide] | 95 to 97 | –
COc1cc2c(Oc3ccc(NS(=O)(=O)c4ccccc4OC)cc3F)ccnc2cc1OCCCN1CCCC(C)C1 (centres unmarked) [Example 71, N-(3-Fluoro-4-{6-methoxy-7-[3-(3-methyl-piperidin-1-yl)-propoxy]-quinolin-4-yloxy}-phenyl)-2-methoxy-benzenesulfonamide] | 175 to 176 | –
COc1cc2c(Oc3ccc(NS(=O)(=O)c4ccccc4OC)cc3F)ccnc2cc1OCCN1CCOCC1 [Example 103, N-{3-Fluoro-4-[6-methoxy-7-(2-morpholin-4-yl-ethoxy)-quinolin-4-yloxy]-phenyl}-2-methoxy-benzenesulfonamide] | 182 to 183 | –
COc1cc2c(Oc3ccc(NS(=O)(=O)c4cccs4)cc3F)ccnc2cc1OCCN1CCOCC1 [Example 105, Thiophene-2-sulfonic acid {3-fluoro-4-[6-methoxy-7-(2-morpholin-4-yl-ethoxy)-quinolin-4-yloxy]-phenyl}-amide] | 146 to 147 | –
COc1cc2c(Oc3ccc(NS(=O)(=O)c4ccccc4C(F)(F)F)c(F)c3)ccnc2cc1OCCCN1CCCC1 [Example 213, N-{2-Fluoro-4-[6-methoxy-7-(3-pyrrolidin-1-yl-propoxy)-quinolin-4-yloxy]-phenyl}-2-trifluoromethyl-benzenesulfonamide] | 152 to 156 | –
